Earlier results, collected in patent US20070202055A1, “Pharmaceutical Formulations” (priority 2006, published 2007).

Assays:
[1] = system: secretions of natural tear components; conditions: preclinical testing
[2] = system: symptoms associated with chronic nasal congestion

## Cc1cc(CCCOc2c(C)cc(-c3noc(C(F)(F)F)n3)cc2C)on1 [Pleconaril, 1,2,4-oxadiazole3-[3,5-Dimethyl-4-[3-(3-methyl-5-isoxazolyl)propoxy]phenyl]-5-(trifluoremethyl)]
Aqueous solvents
  solubility in aqueous solvents: insoluble
For example corn oil and ethanol
  solubility in liquids of low polarity: soluble only in liquids of low polarity
rhinoviruses
  activity against rhinoviruses: active

## O=c1ccn([C@@H]2O[C@H](COP(=O)(O)OP(=O)(O)OP(=O)(O)OP(=O)(O)OC[C@H]3O[C@@H](n4ccc(=O)[nH]c4=O)[C@H](O)[C@@H]3O)[C@@H](O)[C@H]2O)c(=O)[nH]1 [diquafosol]
[1]
  effect on secretions of natural tear components: increased the secretions of natural tear components

## Oc1cccc(Nc2ncc(F)c(Nc3cccc(O)c3)n2)c1 [Example R112]
[2]
  absolute difference over placebo: 9%
  relative improvement over placebo: greater than 20%
[2]; baseline prior to drug initiation
  improvement from baseline measurements: up to 38%
